{"source": "paper PMC9556824", "about": "“Design, synthesis and computational study of new benzofuran hybrids as dual PI3K/VEGFR2 inhibitors targeting cancer” (Scientific Reports, 2022)", "key": {"[1]": {"test_system": "human prostate cancer (PC3)", "assay": "Antitumor screening using MTT assay", "conditions": "Homo sapiens"}, "[2]": {"test_system": "epithelioid carcinoma cervix cancer (Hela)", "assay": "Antitumor screening using MTT assay", "conditions": "Homo sapiens, HeLa", "text": "(§2) Hepatocellular carcinoma (HePG2), mammary gland breast cancer (MCF-7), epithelioid carcinoma cervix cancer (Hela), and human prostate cancer were included on the panel (PC3). […] The cell lines were obtained from the American Type Culture Collection (ATCC) through VACSERA, a Cairo-based holding firm for biological goods and vaccines.\n(§3) The panel consisted of hepatocellular carcinoma (HePG2), mammary gland breast cancer (MCF-7), epithelioid carcinoma cervix cancer (Hela) and human prostate cancer (PC3). Human lung fibroblast (WI38) was used to assay the cytotoxicity effect on normal cell. The cell lines were obtained from ATCC via Holding company for biological products and vaccines (VACSERA), Cairo, Egypt. The cytotoxic activity was defined as the concentration of the compound that causes 50% growth inhibition compared with the growth of untreated cells."}, "[3]": {"test_system": "Hepatocellular carcinoma (HePG2)", "assay": "Antitumor screening using MTT assay", "assay_type": "cell-based, human", "conditions": "Homo sapiens", "text": "as §2, §3"}, "[4]": {"assay": "In vitro cytotoxicity against human normal cell line (MTT)", "assay_type": "cell-based", "conditions": "human, WI38 human lung fibroblast cells (normal cell line), WI38, read-out: Average of Relative viability of cells (%)", "source_text": "(§1) The anticancer agent's selectivity for cancer cells is a critical consideration for any researcher, as it can decrease the molecule's adverse effects on normal human cells."}, "[5]": {"test_system": "human lung fibroblast (WI38)", "assay": "In vitro cytotoxicity against human normal cell line (MTT)", "assay_type": "cell-based", "conditions": "Homo sapiens, WI-38, human normal cell line WI38; mean ± SD, n = 3", "source_text": "as §1"}, "[6]": {"test_system": "HePG2, MCF-7, Hela, PC3 cell lines", "assay": "Antitumor screening using MTT assay, statements across several cell lines", "assay_type": "cell-based, human", "conditions": "HePG2, MCF-7, Hela, PC3", "text": "as §2, §3"}, "[7]": {"test_system": "mammary gland breast cancer (MCF-7)", "assay": "Antitumor screening using MTT assay", "conditions": "Homo sapiens"}, "[8]": {"conditions": "read-out: Average of Relative viability of cells (%)"}, "[9]": {"conditions": "MCF7, read-out: Average of Relative viability of cells (%)"}}, "data": [{"smiles": "C/C(=N\\NC(=O)Nc1ccc(Cl)cc1)c1cc2ccccc2o1", "note": "[Compound 7, (E)-2-[1-(benzofuran-2-yl)ethylidene]-N-(4-chlorophenyl)hydrazine-1-carboxamide]", "values": [{"measurement": "viability at 1.56 µM", "setting": "[1]; [8]", "result": 100, "unit": "%"}, {"measurement": "viability at 3.125 µM", "setting": "[1]; [8]", "result": 100, "unit": "%"}, {"measurement": "viability at 6.25 µM", "setting": "[1]; [8]", "result": 100, "unit": "%"}, {"measurement": "viability at 12.5 µM", "setting": "[1]; [8]", "result": 93.6, "unit": "%"}, {"measurement": "viability at 25 µM", "setting": "[1]; [8]", "result": 76.5, "unit": "%"}, {"measurement": "viability at 50 µM", "setting": "[1]; [8]", "result": 64.8, "unit": "%"}, {"measurement": "viability at 100 µM", "setting": "[1]; [8]", "result": 50.9, "unit": "%"}, {"measurement": "IC50", "setting": "[1]; read-out: In-vitro cytotoxicity IC50 (µM) PC3", "result": "93.9 ± 4.7", "unit": "µM"}, {"measurement": "viability at 1.56 µM", "setting": "[2]; [8]", "result": 100, "unit": "%"}, {"measurement": "viability at 3.125 µM", "setting": "[2]; [8]", "result": 100, "unit": "%"}, {"measurement": "viability at 6.25 µM", "setting": "[2]; [8]", "result": 93.8, "unit": "%"}, {"measurement": "viability at 12.5 µM", "setting": "[2]; [8]", "result": 80.7, "unit": "%"}, {"measurement": "viability at 25 µM", "setting": "[2]; [8]", "result": 68.4, "unit": "%"}, {"measurement": "viability at 50 µM", "setting": "[2]; [8]", "result": 56.3, "unit": "%"}, {"measurement": "viability at 100 µM", "setting": "[2]; [8]", "result": 42.9, "unit": "%"}, {"measurement": "IC50", "setting": "[2]; read-out: In-vitro cytotoxicity IC50 (µM) Hela", "result": "66 ± 3.2", "unit": "µM"}, {"measurement": "viability at 1.56 µM", "setting": "[3]; Conc. 1.56 µM, read-out: Average of Relative viability of cells (%)", "result": 100, "unit": "%"}, {"measurement": "viability at 3.125 µM", "setting": "[3]; Conc. 3.125 µM, read-out: Average of Relative viability of cells (%)", "result": 100, "unit": "%"}, {"measurement": "viability at 6.25 µM", "setting": "[3]; Conc. 6.25 µM, read-out: Average of Relative viability of cells (%)", "result": 99.7, "unit": "%"}, {"measurement": "viability at 12.5 µM", "setting": "[3]; Conc. 12.5 µM, read-out: Average of Relative viability of cells (%)", "result": 87.4, "unit": "%"}, {"measurement": "viability at 25 µM", "setting": "[3]; Conc. 25 µM, read-out: Average of Relative viability of cells (%)", "result": 72.5, "unit": "%"}, {"measurement": "viability at 50 µM", "setting": "[3]; Conc. 50 µM, read-out: Average of Relative viability of cells (%)", "result": 60.2, "unit": "%"}, {"measurement": "viability at 100 µM", "setting": "[3]; Conc. 100 µM, read-out: Average of Relative viability of cells (%)", "result": 48.1, "unit": "%"}, {"measurement": "IC50", "setting": "[3]; mean ± SD, n = 3, read-out: In-vitro cytotoxicity IC50 (µM) HePG2", "result": "81.6 ± 3.9", "unit": "µM"}, {"measurement": "viability at 1.56 µM", "setting": "[4]; Conc. 1.56 µM", "result": 100, "unit": "%"}, {"measurement": "viability at 3.125 µM", "setting": "[4]; Conc. 3.125 µM", "result": 100, "unit": "%"}, {"measurement": "viability at 6.25 µM", "setting": "[4]; Conc. 6.25 µM", "result": 100, "unit": "%"}, {"measurement": "viability at 12.5 µM", "setting": "[4]; Conc. 12.5 µM", "result": 100, "unit": "%"}, {"measurement": "viability at 25 µM", "setting": "[4]; Conc. 25 µM", "result": 89.3, "unit": "%"}, {"measurement": "viability at 50 µM", "setting": "[4]; Conc. 50 µM", "result": 76.2, "unit": "%"}, {"measurement": "viability at 100 µM", "setting": "[4]; Conc. 100 µM", "result": 55.5, "unit": "%"}, {"measurement": "IC50", "setting": "[5]", "result": "> 100", "unit": "µM"}, {"measurement": "melting point", "result": "235 to 237", "unit": "°C"}, {"measurement": "anticancer activity towards the four / all assessed cell lines (grade)", "setting": "[6]", "result": "weak (51–100 (weak))"}, {"measurement": "viability at 1.56 µM", "setting": "[7]; [9]", "result": 100, "unit": "%"}, {"measurement": "viability at 3.125 µM", "setting": "[7]; [9]", "result": 100, "unit": "%"}, {"measurement": "viability at 6.25 µM", "setting": "[7]; [9]", "result": 97.6, "unit": "%"}, {"measurement": "viability at 12.5 µM", "setting": "[7]; [9]", "result": 88.9, "unit": "%"}, {"measurement": "viability at 25 µM", "setting": "[7]; [9]", "result": 70.2, "unit": "%"}, {"measurement": "viability at 50 µM", "setting": "[7]; [9]", "result": 58, "unit": "%"}, {"measurement": "viability at 100 µM", "setting": "[7]; [9]", "result": 47.8, "unit": "%"}, {"measurement": "IC50", "setting": "[7]; MCF7, read-out: In-vitro cytotoxicity IC50 (µM) MCF-7", "result": "76.9 ± 3.8", "unit": "µM"}]}]}
